# Assay results from CN107475146A, “一种链霉菌及其代谢产物粉蝶霉素类化合物在抗肾癌中的应用” (priority 2017, dated 2017).
# Columns and labels:
# Assay type in all cases: cell-based
# [1] = test system: OS-RC-2 human renal cancer cell line [OS-RC-2人肾癌细胞株]; assay: CCK-8 assay, inhibition of proliferation of OS-RC-2 human renal cancer cells; conditions: for IC50: CCK-8, 72 h
# [2] = test system: 786-O human renal cancer cell line [786-O人肾癌细胞株]; assay: CCK-8 assay, inhibition of proliferation of 786-O human renal cancer cells
# [3] = test system: 786-O and ACHN cells [786-O和ACHN细胞]; assay: CCK-8 assay, 786-O and ACHN human renal cancer cells, result stated jointly for both lines
# [4] = test system: ACHN human renal cancer cell line [ACHN人肾癌细胞株]; assay: CCK-8 assay, inhibition of proliferation of ACHN human renal cancer cells; conditions: 72 h
Compound,IC50 [1] [µM],IC50 ([2]; 72 h) [µM],also measured
"CC=C(C)C(O)C(C)C=C(C)C=CCC(C)=CCc1nc(OC)c(OC)c(O)c1C (centres unmarked) [化合物1, Piericidin A]",,,"IC50 ([1]; Homo sapiens): 5.16 µM; IC50 ([2]; Homo sapiens, 786-0, 72 h): 29.9 µM; IC50 ([3]; Homo sapiens, joint range over compounds 1, 2, 4 and 5, CCK-8, 72 h): 0.4 to 72 µM; IC50 ([4]; Homo sapiens): 0.4 µM"
IT-143-A [compound 4],20.5,61.1,
IT-143-B [化合物5],42.1,72,
Piericidin A2 [化合物2],16.4,50.3,IC50 [4]: 14.2 µM
Piericidin C2 [化合物3],22.4,> 100,
Piericidin s3a [化合物6],30.9,> 100,inhibitory activity ([1]; in words): 具有抑制活性; selectivity ([3]; in words): 具有一定的选择性
